# Laboratory results reported in patent publication US5244883A, “Nonapeptide bombesin antagonists” (The Administrators of the Tulane Educational Fund, priority 1990, dated 1993).
# Where no end group is shown, it is not given here.
# Key:
# 3T3 CELLS = format: cell-based, Murine; conditions: GRP 3 ng/ml alone, no antagonist; basal 207000 ± 4200
# Description: (C) Inhibition of ^3 H-Thymidine incorporation by 3T3cells. SCLC cells were used 2 to 4 days after passage. Single cell suspensions were prepared by washing the cells (twice with PBS then pipetting them in PBS containing 0.2 g/liter glucose, 0.2 g/liter EDTA, and 14 mM lignocaine hydrochloride at 37° C. until the suspension appeared to be uniform (2-4 min). The cells were washed three times and resuspended in HITES without FCSB. Cultures were set up at 1.34×10^5 cells plated on day 0, all peptides added at same time in 1 ml. of RPMI-1640 medium plus HITES and 0.125% albumin. 48 hours later, 1 uc. of tritiated thymidine was added to each well and incubation continued for an additional 24 hours. Cells then were washed and deposited on glass filter paper and washed with ice cold 5% trichloro-acetic acid. Filter paper placed in vials containing scintillation fluid and counted for 1 minute. | 348,000 - 207,000 = 141,000 was taken as the stimulation
# serum gastrin = assay: Serum gastrin inhibition in vivo after GRP stimulation; conditions: rat, eight minutes after GRP 3 μg/100 g BW alone; control 16.7
# Description: Bombesin analogs Peptides (5), (10) and (2) were tested in vivo on serum gastrin inhibition after GRP stimulation.
substance,measurement,setting,value
"GRP: gastrin releasing peptide, peptide amide containing 27 amino-acid with bombesin-like properties; agonist stimulus (VPLPAGGGTVLTKMYPRGNHWAVGHLM-NH2; UniProt P07492 24-50, looked up)",DPM ± S.E.,3T3 CELLS,348000 ± 15300 DPM
same,serum gastrin level,serum gastrin,105 pg/mL
